Each compound was assayed against truncated form of human NaV 1.8 with full channel activity (Homo sapiens, UniProt Q9Y5Y9) (assay: E-VIPR Assay Method A for detecting and measuring Nav inhibition (HEK cells, membrane potential FRET dyes, electrical stimulation)). Details: HEK cells expressing human NaV 1.8, HS (human serum) in compound loading buffer, 11 point dose response, top dose 3 μM, Table 20A, read-out: Nav 1.8 MedChem Optical Assay EVIPR Assay Method A HS IC50.
Chain of truncated form of human NaV 1.8 with full channel activity (Q9Y5Y9 126-1722 limits assumed): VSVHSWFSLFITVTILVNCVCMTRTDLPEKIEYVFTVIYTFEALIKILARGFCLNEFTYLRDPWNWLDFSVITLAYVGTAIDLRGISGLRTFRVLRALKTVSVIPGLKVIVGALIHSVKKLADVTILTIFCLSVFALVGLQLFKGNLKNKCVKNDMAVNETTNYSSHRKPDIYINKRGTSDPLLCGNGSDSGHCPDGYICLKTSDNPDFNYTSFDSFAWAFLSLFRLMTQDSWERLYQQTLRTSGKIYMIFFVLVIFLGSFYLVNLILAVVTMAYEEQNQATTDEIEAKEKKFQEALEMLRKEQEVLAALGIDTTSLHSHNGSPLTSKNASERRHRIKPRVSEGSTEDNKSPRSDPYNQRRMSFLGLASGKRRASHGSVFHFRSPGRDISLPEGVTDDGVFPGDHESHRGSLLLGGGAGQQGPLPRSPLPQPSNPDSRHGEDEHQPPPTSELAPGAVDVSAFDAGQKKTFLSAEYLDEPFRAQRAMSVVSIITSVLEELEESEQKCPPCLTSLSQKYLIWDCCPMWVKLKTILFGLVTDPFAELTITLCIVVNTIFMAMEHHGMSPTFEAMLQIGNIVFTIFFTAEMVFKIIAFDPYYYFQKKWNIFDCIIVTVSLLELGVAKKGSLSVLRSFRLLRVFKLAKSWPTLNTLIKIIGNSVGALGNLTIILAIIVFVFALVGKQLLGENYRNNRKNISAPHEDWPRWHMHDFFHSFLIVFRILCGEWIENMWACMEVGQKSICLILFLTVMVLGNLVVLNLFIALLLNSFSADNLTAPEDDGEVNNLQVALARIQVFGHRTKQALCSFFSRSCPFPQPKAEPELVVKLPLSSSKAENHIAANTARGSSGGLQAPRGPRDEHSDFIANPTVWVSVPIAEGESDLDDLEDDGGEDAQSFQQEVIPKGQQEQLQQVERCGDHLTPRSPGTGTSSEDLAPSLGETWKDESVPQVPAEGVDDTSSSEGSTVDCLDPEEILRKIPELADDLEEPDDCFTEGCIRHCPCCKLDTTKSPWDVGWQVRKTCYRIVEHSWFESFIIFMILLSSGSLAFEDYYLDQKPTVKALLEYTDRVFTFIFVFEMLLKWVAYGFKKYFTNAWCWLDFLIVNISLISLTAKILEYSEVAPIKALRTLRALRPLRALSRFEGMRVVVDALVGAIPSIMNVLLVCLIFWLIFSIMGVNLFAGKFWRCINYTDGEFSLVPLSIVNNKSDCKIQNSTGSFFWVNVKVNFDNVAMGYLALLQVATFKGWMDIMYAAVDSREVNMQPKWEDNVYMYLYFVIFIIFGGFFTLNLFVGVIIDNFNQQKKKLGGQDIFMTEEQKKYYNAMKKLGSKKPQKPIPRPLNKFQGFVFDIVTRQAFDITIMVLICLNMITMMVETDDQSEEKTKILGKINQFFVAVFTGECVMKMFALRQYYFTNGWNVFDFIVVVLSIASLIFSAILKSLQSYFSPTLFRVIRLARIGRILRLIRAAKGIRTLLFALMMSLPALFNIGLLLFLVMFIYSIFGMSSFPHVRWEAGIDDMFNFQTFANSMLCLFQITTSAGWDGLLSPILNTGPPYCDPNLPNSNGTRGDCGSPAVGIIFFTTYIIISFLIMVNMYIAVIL
Format: cell-based
Method in brief: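 Read-out: FRET membrane-potential dye ratio (460/580 nm) before and during E-VIPR field stimulation at 10 Hz for 10 s, expressed as % activity between DMSO and positive controls. Cells: HEK with truncated human NaV1.8; compound preincubated 30 min at room temp, final DMSO 0.625%.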
COc1cc(F)ccc1-c1cc(C(F)(F)F)ccc1C(=O)Nc1ccc(F)c(C(N)=O)c1 [Compound 162, N-(3-carbamoyl-4-fluoro-phenyl)-2-(4-fluoro-2-methoxy-phenyl)-4-(trifluoromethyl)benzamide] was tested, and the IC50 was 170 nM.
COc1cc(OC(F)(F)F)ccc1Oc1cc(C(F)(F)F)cc(F)c1C(=O)Nc1ccnc(C(N)=O)c1 [Compound 163, 4-[[2-Fluoro-6-[2-methoxy-4-(trifluoromethoxy)phenoxy]-4-(trifluoromethyl)benzoyl]amino]pyridine-2-carboxamide] was tested, and the IC50 was 11 nM.
Compound COc1cc(OC(F)(F)F)ccc1Oc1cncc(F)c1C(=O)Nc1ccc(F)c(C(N)=O)n1 [Compound 164, 3-Fluoro-6-[[3-fluoro-5-[2-methoxy-4-(trifluoromethoxy)phenoxy]pyridine-4-carbonyl]amino]pyridine-2-carboxamide] has an IC50 of 1600 nM.
Work on COc1cc(OC(F)(F)F)ccc1Oc1cncc(F)c1C(=O)Nc1ccnc(C(N)=O)c1 [Compound 165, N-(2-Carbamoyl-4-pyridyl)-3-fluoro-5-[2-methoxy-4-(trifluoromethoxy)phenoxy]pyridine-4-carboxamide] yielded an IC50 of 340 nM.
With COc1cc(OC(F)(F)F)ccc1Oc1cnc(C(F)(F)F)c(OC)c1C(=O)Nc1ccnc(C(N)=O)c1 [Compound 166, N-(2-Carbamoyl-4-pyridyl)-3-methoxy-5-[2-methoxy-4-(trifluoromethoxy)phenoxy]-2-(trifluoromethyl)pyridine-4-carboxamide] the IC50 was 5 nM.
Work on [2H]C([2H])([2H])Oc1cc(OC(F)(F)F)ccc1Oc1ccc(OC(F)(F)F)c(F)c1C(=O)Nc1ccc(C(N)=O)nc1 [Compound 167, 5-[[2-fluoro-6-[2-(trideuteriomethoxy)-4-(trifluoromethoxy)phenoxy]-3-(trifluoromethoxy)benzoyl]amino]pyridine-2-carboxamide] yielded an IC50 of 45 nM.
In the case of [2H]C([2H])([2H])Oc1cc(OC(F)(F)F)ccc1Oc1ccc(C(F)(F)F)c(F)c1C(=O)Nc1cccc(C(N)=O)n1 [Compound 168, 6-[[2-Fluoro-6-[2-(trideuteriomethoxy)-4-(trifluoromethoxy)phenoxy]-3-(trifluoromethyl)benzoyl]amino]pyridine-2-carboxamide], the IC50 is reported as 140 nM.
For COc1cc(OC(F)(F)F)ccc1Oc1ccc(C(F)(F)F)c(F)c1C(=O)Nc1cccc(C(N)=O)n1 [Compound 169, 6-[[2-Fluoro-6-[2-methoxy-4-(trifluoromethoxy)phenoxy]-3-(trifluoromethyl)benzoyl]amino]pyridine-2-carboxamide], the IC50 was 113 nM.
Work on COc1cc(OC(F)(F)F)ccc1Oc1cc(Cl)cc(F)c1C(=O)Nc1ccnc(C(N)=O)c1 [Compound 170, 4-[[4-Chloro-2-fluoro-6-[2-methoxy-4-(trifluoromethoxy)phenoxy]benzoyl]amino]pyridine-2-carboxamide] yielded an IC50 of 14 nM.
COc1cc(OC(F)(F)F)ccc1Oc1ccc(F)c(Cl)c1C(=O)Nc1ccnc(C(N)=O)c1 [Compound 171, 4-[[2-Chloro-3-fluoro-6-[2-methoxy-4-(trifluoromethoxy)phenoxy]benzoyl]amino]pyridine-2-carboxamide] showed an IC50 of 35 nM.
For [2H]C([2H])([2H])Oc1cc(OC(F)(F)F)ccc1Oc1cc(OC(F)(F)F)cc(F)c1C(=O)Nc1ccnc(C(N)=O)c1 [Compound 172, 4-[[2-Fluoro-6-[2-(trideuteriomethoxy)-4-(trifluoromethoxy)phenoxy]-4-(trifluoromethoxy)benzoyl]amino]pyridine-2-carboxamide], the IC50 was 12 nM.
Compound [2H]C([2H])([2H])Oc1cc(OC(F)(F)F)ccc1Oc1cc(OC(F)(F)F)cc(F)c1C(=O)Nc1ccc(C(N)=O)nc1 [Compound 173, 5-[[2-Fluoro-6-[2-(trideuteriomethoxy)-4-(trifluoromethoxy)phenoxy]-4-(trifluoromethoxy)benzoyl]amino]pyridine-2-carboxamide] has an IC50 of 52 nM.
[2H]C([2H])([2H])Oc1cc(OC(F)(F)F)ccc1Oc1cc(OC(F)F)cc(F)c1C(=O)Nc1ccc(C(N)=O)nc1 [Compound 174, 5-[[4-(Difluoromethoxy)-2-fluoro-6-[2-(trideuteriomethoxy)-4-(trifluoromethoxy)phenoxy]benzoyl]amino]pyridine-2-carboxamide] showed an IC50 of 88 nM.
For [2H]C([2H])([2H])Oc1cc(OC(F)(F)F)ccc1Oc1cc(C(F)(F)F)cc(C(F)(F)F)c1C(=O)Nc1ccnc(C(N)=O)c1 [Compound 175, 4-[[2-[2-(Trideuteriomethoxy)-4-(trifluoromethoxy)phenoxy]-4,6-bis(trifluoromethyl)benzoyl]amino]pyridine-2-carboxamide], the IC50 was 38 nM.
For [2H]C([2H])([2H])Oc1cc(OC(F)(F)F)ccc1Oc1cc(C(F)(F)F)cc(C(F)(F)F)c1C(=O)Nc1ccc(C(N)=O)nc1 [Compound 176, 5-[[2-[2-(Trideuteriomethoxy)-4-(trifluoromethoxy)phenoxy]-4,6-bis(trifluoromethyl)benzoyl]amino]pyridine-2-carboxamide], the IC50 was 190 nM.
Compound NC(=O)c1cc(NC(=O)c2c(Cl)cc(Cl)cc2Oc2ccc(F)cc2)ccn1 [Compound 177, 4-[[2,4-Dichloro-6-(4-fluorophenoxy)benzoyl]amino]pyridine-2-carboxamide] has an IC50 of 460 nM.
COc1cc(F)ccc1Oc1cc(Cl)cc(Cl)c1C(=O)Nc1ccnc(C(N)=O)c1 [Compound 178, 4-[[2,4-Dichloro-6-(4-fluoro-2-methoxy-phenoxy)benzoyl]amino]pyridine-2-carboxamide] gave an IC50 of 76 nM.
Compound [2H]C([2H])([2H])Oc1cc(OC(F)(F)F)ccc1Oc1cc(Cl)cc(Cl)c1C(=O)Nc1ccnc(C(N)=O)c1 [Compound 179, 4-[[2,4-Dichloro-6-[2-(trideuteriomethoxy)-4-(trifluoromethoxy)phenoxy]benzoyl]amino]pyridine-2-carboxamide] has an IC50 of 10 nM.
Compound NC(=O)c1cc(NC(=O)c2c(Cl)cc(Cl)cc2Oc2ccc(OC(F)(F)F)cc2)ccn1 [Compound 180, 4-[[2,4-Dichloro-6-[4-(trifluoromethoxy)phenoxy]benzoyl]amino]pyridine-2-carboxamide] has an IC50 of 75 nM.
With NC(=O)c1ccc(NC(=O)c2c(Cl)cc(Cl)cc2Oc2ccc(F)cc2)cn1 [Compound 181, 5-[[2,4-Dichloro-6-(4-fluorophenoxy)benzoyl]amino]pyridine-2-carboxamide] the IC50 was 2100 nM.
With COc1cc(F)ccc1Oc1cc(Cl)cc(Cl)c1C(=O)Nc1ccc(C(N)=O)nc1 [Compound 182, 5-[[2,4-Dichloro-6-(4-fluoro-2-methoxy-phenoxy)benzoyl]amino]pyridine-2-carboxamide] the IC50 was 410 nM.
[2H]C([2H])([2H])Oc1cc(OC(F)(F)F)ccc1Oc1cc(Cl)cc(Cl)c1C(=O)Nc1ccc(C(N)=O)nc1 [Compound 183, 5-[[2,4-Dichloro-6-[2-(trideuteriomethoxy)-4-(trifluoromethoxy)phenoxy]benzoyl]amino]pyridine-2-carboxamide] was tested, and the IC50 was 99 nM.
Compound NC(=O)c1ccc(NC(=O)c2c(Cl)cc(Cl)cc2Oc2ccc(OC(F)(F)F)cc2)cn1 [Compound 184, 5-[[2,4-Dichloro-6-[4-(trifluoromethoxy)phenoxy]benzoyl]amino]pyridine-2-carboxamide] has an IC50 of 500 nM.
COc1cc(OC(F)(F)F)ccc1Oc1cc(Cl)cc(F)c1C(=O)Nc1ccc(C(N)=O)nc1 [Compound 185, 5-[[4-Chloro-2-fluoro-6-[2-methoxy-4-(trifluoromethoxy)phenoxy]benzoyl]amino]pyridine-2-carboxamide] showed an IC50 of 66 nM.
Work on COc1cc(OC(F)(F)F)ccc1Oc1ccc(F)c(Cl)c1C(=O)Nc1ccc(C(N)=O)nc1 [Compound 186, 5-[[2-Chloro-3-fluoro-6-[2-methoxy-4-(trifluoromethoxy)phenoxy]benzoyl]amino]pyridine-2-carboxamide] yielded an IC50 of 190 nM.
With COc1cc(OC(F)(F)F)ccc1Oc1cc(C(F)(F)F)cc(F)c1C(=O)Nc1ccc(C(N)=O)nc1 [Compound 187, 5-[[2-Fluoro-6-[2-methoxy-4-(trifluoromethoxy)phenoxy]-4-(trifluoromethyl)benzoyl]amino]pyridine-2-carboxamide] the IC50 was 53 nM.
[2H]C([2H])([2H])Oc1cc(OC(F)(F)F)ccc1Oc1ccc(C(F)(F)F)c(F)c1C(=O)Nc1ccc(C(N)=O)nc1C [Compound 188, 5-[[2-Fluoro-6-[2-(trideuteriomethoxy)-4-(trifluoromethoxy)phenoxy]-3-(trifluoromethyl)benzoyl]amino]-6-methyl-pyridine-2-carboxamide] gave an IC50 of 160 nM.
COc1cc(OC(F)(F)F)ccc1Oc1ccc(Cl)c(F)c1C(=O)Nc1cc(C(N)=O)ncc1C [Compound 189, 4-[[3-Chloro-2-fluoro-6-[2-methoxy-4-(trifluoromethoxy)phenoxy]benzoyl]amino]-5-methyl-pyridine-2-carboxamide] was tested, and the IC50 was 6 nM.
In the case of NC(=O)c1cc(NC(=O)c2c(Oc3ccc(OC(F)(F)F)cc3)ccc3c2CCC3(F)F)ccc1F [Compound 190, N-(3-Carbamoyl-4-fluoro-phenyl)-1,1-difluoro-5-[4-(trifluoromethoxy)phenoxy]indane-4-carboxamide], the IC50 is reported as 32 nM.
NC(=O)c1cc(NC(=O)c2c(Oc3ccc(OC(F)(F)F)cc3)ccc3c2CCC3(F)F)ccn1 [Compound 191, 4-[[1,1-Difluoro-5-[4-(trifluoromethoxy)phenoxy]indane-4-carbonyl]amino]pyridine-2-carboxamide] gave an IC50 of 120 nM.
In the case of NC(=O)c1ccc(NC(=O)c2c(Oc3ccc(OC(F)(F)F)cc3)ccc3c2CCC3(F)F)cn1 [Compound 192, 5-[[1,1-Difluoro-5-[4-(trifluoromethoxy)phenoxy]indane-4-carbonyl]amino]pyridine-2-carboxamide], the IC50 is reported as 420 nM.
With COc1cc(OC(F)(F)F)ccc1Oc1ccc(C(F)(F)F)c(F)c1C(=O)Nc1ccc(C(N)=O)nc1 [Compound 193, 5-[[2-fluoro-6-[2-methoxy-4-(trifluoromethoxy)phenoxy]-3-(trifluoromethyl)benzoyl]amino]pyridine-2-carboxamide] the IC50 was 16 nM.

Reference: patent US12281057B2 (VERTEX PHARMACEUTICALS INCORPORATED, priority 2017, dated 2025)
